Series [1] deals with CLP mice. The experiment in a line: Fear conditioning test after sepsis. The series is classed as in vivo. The procedure:
(§1) Comportemental tests: Every comportemental tests were started 15 days after sepsis induction. The experimentator was blinded to the experimental group.
Fear conditioning. Mice underwent the classical fear conditioning test with a cued stimulus (auditory tone) and an uncued stimulus (electric shock). During two consecutive conditioning trials, 2 minutes resting followed by a 48s tone ([…] tone, 60 db) and 5 electrical footshocks of 2 joules during 2 seconds. Twenty four hours after conditioning, mice underwent the fear memory recall after exposition to a contextual stimulus (shock cage in the same configuration without auditory tone) or an auditory stimulus (Auditory tone in a different cage with a vanilla artificial odor). Freezing was evaluated for 2 seconds every 8 seconds and was defined as the absence of movement of the mouse with tail erection. Percentage of 10 seconds period freezing was reported to the total amount of freezing.

Series [2] concerns CLP mice. The series can be described thus: Novel object location/recognition tests after sepsis. The class given is in vivo. Conditions: septic mice, treated or not. The method, then:
as §1
Novel Object Recognition Test: Tests comprise three phases: habituation, familiarization and test phase. During the first 20 minutes animals were placed in a transparent arena under a 100 lux light that had three compartments separated with one-holed plexiglass walls. Two objects were used (a plastic power plug and a brass bolt). During the next 10 minutes two similar objects (A,A) were placed in the lateral compartments. We considered that mice were exploring the objects when they were climbing or explore it with their nose. Immediately after mice were replaced in the center of arena and two new objects (A,B) were placed in the compartments. The ratio of time spent exploring objects A and ratio of time exploring object AB were compared.
(§2) Figures J-M. Morris water Maze test (MWM) and Novel Object Location/Recognition tests.

Another series concerns TNF alpha, IL1 beta. The experiment in a line: ELISA assay on brain parenchyma after sepsis. The class given is in vivo, mice. Conditions: during sepsis. On the technique in general: In an ELISA, binding on a coated surface is turned into a signal by an enzyme label.
In series [3] the test system is CLP mice. The experiment in a line: Elevated plus maze test after sepsis. As to conditions: levetiracetam vs placebo treated CLP mice. The class given is in vivo. The procedure:
Elevated plus maze test: Mice home cage was placed in the experimental room 45 minutes prior any handling. Mice were placed in cross shaped 40 cm maze consisting in 2 open arms without walls and 2 closed arms with 30 cm opaque walls. Mice were tracked with ethovision XT during 5 minutes trials. The maximum velocity, total distance walked, number of entries in an open arm, and amount of time spent in an opened arm or in a closed arm were recorded. Datas are presented as Mean±SEM.
(§3) FIG. 2: Innate anxiety behavior and depressive phenotype was investigated with the elevated plus maze and splash test.

The conditions of series [4]: cited from earlier work.
Series [5] deals with murine primary monocytic cells. The series can be described thus: Nitric Oxide production in primary monocytic cells exposed to LPS. Conditions: activated murine monocytic cells, LPS 10 μg/mL, cell culture supernatant, dose effect relationship. The class given is cell-based. The procedure: LPS exposure increased NO production at a dose of 10 μg/mL after 24 exposure in cell culture supernatant.

The subject of series [6] is CLP mice. The series can be described thus: Splash test after sepsis. The class given is in vivo. Conditions: levetiracetam vs placebo treated CLP mice. The method, then: Splash test: Mice were placed in a new cage 45 minutes before testing in the experimental room. They were then held onto a grid and 200 μl of sucrose 10% solution was spray on their back's fur. They were then placed in the home cage for 5 minutes. The latency before the first time mice groomed, the number of cleaning sessions and the total amount of time spent cleaning during the 5 minute test were measured. Mice were then placed back in their cage. Datas are presented as Mean±SEM.
as §3

In series [7] the test system is peripheral nervous system. Conditions: septic rats, single dose of 300, 600 or 1200 mg/kg one hour after surgery; cited from earlier work.
Series [8] has as its system CLP mice. The experiment in a line: Sepsis score after CLP. The series is classed as in vivo, C57Bl/6 mice. Conditions: evaluated every 12 hours. The procedure: Analgesia and rehydration of mice were performed with buprenorphine (0.1 mg/Kg, Buprecare, Axience, Pantin, France) every 12 hours until complete recovery. […] Clinical scoring: Sepsis severity was evaluated twice a day until day 4, or normalization of «sepsis score», a previously described score that ranges from […]. This score evaluates markers of local (abdominal spasm) and systemic reaction to sepsis (rectal temperature, fur erection, abnormal breathing), behavioural alterations (feces cleaning, presence of periocular dried eyedrop, incomplete palpebral opening, spontaneous activity in the cage, the escape attempt after tail grabbing) and signs of muscular weakness (grip strength, body tone, difficulty to walk). Each item was scored 0 or 1, with a total score rang from 0 (normal) to 12 (highly severe). For ethical reason, mice with a sepsis score ≥8 and a temperature ≤34.5° C. were euthanized as they were considered to almost certainly die within the 12 hours.
FIG. 1C. Sepsis score was evaluated every 12 hours (general state criteria, temperature, fur erection, respiratory rate, sickness behaviour, spontaneous activity in the home cage, lacrimation, palpebral closure, feces toilet, locomotor criteria, grip strength, difficulties walking, local reaction, abdominal wall contraction, axial body tone). Datas are presented as mean±SEM.

The test system of series [9] is pro- and anti-inflammatory cytokine levels in brain parenchyma. The series can be described thus: Cytokine multiplex in brain parenchyma after sepsis. The series is classed as in vivo, mice. As to conditions: 24 hours after sepsis induction.
Description: Cytokine multiplex: Brain samples were weighed and unfrosted in 100 μl of extraction buffer (PBS 1×, complete protease inhibitor, sigma-aldrich, triton 0.1%) processed in 2 ml Lysing Matrix A tubes with FastPrep-24 (MP biomedicals, Germany). Tubes were centrifuged at 20000 g at 4° C. and supernatant was collected and protein concentration was determined with light absorbance at 280 nm using a Nanodrop Lite Spectrophotometer (Thermo Scientific). […] Cytokines were measured using a Bio-Plex System and Mouse Cytokine Standard 23-Plex Group 1 kit following manufacturer's recommendations. Raw datas were analyzed by dividing the concentration of cytokine with protein concentration in lyzate and weight of sample measured on precision balance. Then every cytokine concentrations are presented as a ratio compared to the untreated sepsis group.
Series [10] relates to CLP mice. The series can be described thus: Morris water maze after sepsis. The class given is in vivo.
Description: as §1
Morris Water Maze was realized as described by Vorhees et al. Nature Protocols 2006. It consisted in a phase of spatial learning and a probe trial. During the first phase the animal learns spatial position of a platform (11 cm diameter) hidden in a swimming pool (120 cm diameter) with opaque water relatively to cues placed on the water tank and in the experimental room. The animal is released in a random quadrant 4 times per day during 7 days. The distance (cm) before reaching the platform, the latency (s) and the proportion of time spent in each quadrant is measured. After each day the learning curve of mice reaching the platform is drawn. If this curve reached a plateau, the probe trial is realized the next day. Probe trial consists in a recall of the spatial reference memory.
as §2

The subject of series [11] is rats treated to model traumatic brain injury. Conditions: 54 mg/kg or 170 mg/kg single perfusion 15 minutes after injury; cited from earlier work.

Description for TNF alpha, IL1 beta: FIG. 3C—An ELISA assay was performed on brain parenchyma to detect lower changes in cytokine concentration.

Consider `CC[C@@H](C(N)=O)N1CCCC1=O` (single isomer, unassigned) [levetiracetam], for which the “motor response to electric shock during conditioning period” value in the series with CLP mice [1] (between groups) is on record as “did not differ”. Moreover, the auditory freezing time result with CLP mice [1] (levetiracetam treated vs placebo treated CLP mice, p=0,024) is given as “lower”. Also, in the series with CLP mice [2], the “time on novel vs familiar object” value is “same amount of time”. Also, in the series on TNF alpha, IL1 beta, the “TNF alpha expression in brain parenchyma (ELISA)” value is “No difference”. In the series on TNF alpha, IL1 beta (p<0.05), the “IL1 beta in brain parenchyma (ELISA)” value was “increased”. Moreover, the “innate anxiety (elevated plus maze)” value in the series with CLP mice [3] is “No difference”. For the same compound, the solubility in acetonitrile in series [4] (acetonitrile) is recorded as 5.7 g/100 mL. Moreover, in series [4] (chloroform), the solubility in chloroform was 65.3 g/100 mL. Moreover, the solubility in ethanol in series [4] (ethanol) is on record as 16.5 g/100 mL. Besides, the solubility in methanol in series [4] (methanol) was 53.6 g/100 mL. For the same compound, the solubility in n-hexane entry in [4] (n-hexane) is “practically insoluble”. The solubility in water in series [4] (water) was 104.0 g/100 mL. Moreover, the “production of Nitric Oxide” value in series [5] is “reduced”. Also, the “depressive phenotype (splash test)” value in the series with CLP mice [6] was “No difference”. In series [7], the “effects on the peripheral nervous system” value is “broad spectrum of protective and restorative effects”. In addition, the “sepsis score vs placebo” value with CLP mice [8] is “did not differ”. The “TNF alpha in brain parenchyma (multiplex)” value in series [9] (sepsis group treated) is on record as “could not be detected”. In addition, the “IL4 concentration in brain parenchyma (multiplex)” value in series [9] (vs septic mice receiving saline) was “increased”. The “Morris water maze learning to locate the platform (AUC of learning curve)” value in the series with CLP mice [10] (septic mice) is on record as “did not present an effect”. Further, the “Morris water maze test day time in platform quadrant” value with CLP mice [10] (test day (probe trial), all groups) is on record as “same amount of time”. The cognitive outcome in series [11] was “improved”.
